Our source for the IC50, remaining activity and NAM designation values is patent publication US10538491B2, “4,5-substituted picolinamide and picolinonitrile metabotropic glutamate receptor 2 negative allosteric modulators” (Vanderbilt University, priority 2015, dated 2020).

Each structure is given as a SMILES string. A value given as a limit tells only on which side of the number the result lay.

The target of the test is rat mGlu2 (Rattus norvegicus (Rat), UniProt P31421). The test can be described thus: mGlu2 Ca2+ flux assay. Type of test: cell-based. The settings on record: for IC50: Gα15 HEK293 cells stably expressing rat mGlu2, glutamate EC80, >10,000 = no plateau, >30,000 = no measurable activity; for remaining activity at 30 µM: amplitude of response in the presence of 30 μM test compound as percentage of maximal response to glutamate, read-out: rat mGlu2 Glu max; for NAM designation: concentration-dependent decrease in the glutamate EC80 response. The method, then: Gα15 HEK293 cells stably expressing rat mGlu2 were plated in black-walled, clear-bottomed, poly-D-lysine coated 384-well plates in 20 μL of assay medium (DMEM containing 10% dialyzed FBS, 20 mM HEPES, and 1 mM sodium pyruvate) at a density of 12K cells/well. The cells were grown overnight at 37° C. in the presence of 5% CO2. The next day, medium was removed and the cells incubated with 20 μL of 2.3 μM Fluo-4, AM prepared as a 2.3 mM stock in DMSO and mixed in a 1:1 ratio with 10% (w/v) pluronic acid F-127 and diluted in assay buffer (Hank's balanced salt solution, 20 mM HEPES, and 2.5 mM probenecid) for 45 minutes at 37° C. Dye was removed, 20 μL of assay buffer was added, and the plate was incubated for 5 minutes at room temperature.
Ca^2+ flux was measured using the Functional Drug Screening System (FDSS7000, Hamamatsu, Japan). After establishment of a fluorescence baseline for about 3 seconds, the compounds of the present invention were added to the cells, and the response in cells was measured. 2.3 minutes later an EC20 concentration of the mGlu2 receptor agonist glutamate was added to the cells, and the response of the cells was measured for 1.9 minutes; an EC80 concentration of agonist was added and readings taken for an additional 1.7 minutes. All test compounds were dissolved and diluted to a concentration of 10 mM in 100% DMSO. Compounds were then serially diluted 1:3 in DMSO into 10 point concentration response curves, transferred to daughter plates, and further diluted into assay buffer to a 2× stock. Calcium fluorescence measures were recorded as fold over basal fluorescence; raw data was then normalized to the maximal response to glutamate. Antagonism of the agonist response of the mGlu2 receptor in the present invention was observed as a decrease in response to nearly maximal concentrations of glutamate in the presence of compound compared to the response to glutamate in the absence of compound.
The raw data file containing all time points was used as the data source in the analysis template. This was saved by the FDSS as a tab-delimited text file. Data were normalized using a static ratio function (F/F0) for each measurement of the total 360 values per well divided by each well's initial value. Data were then reduced to peak amplitudes (Max−Initial Min) using a time range that starts approximately 3 seconds prior to the glutamate EC80 addition and continues for approximately 90 seconds. This is sufficient time to capture the peak amplitude of the cellular calcium response. Individual amplitudes were expressed as % ECMax by multiplying each amplitude by 100 and then dividing the product by the mean of the amplitudes derived from the glutamate ECMax-treated wells. IC50 values for test compounds were generated by fitting the normalized values versus the log of the test compound concentration (in mol/L) using a 4 parameter logistic equation where none of the parameters were fixed. Each of the three values collected at each concentration of test compound were weighted evenly.
For NAMs, potency (IC50) and maximum response (% Glu Max), i.e. the amplitude of response in the presence of 30 μM test compound as a percentage of the maximal response to glutamate, are reported. […] Compounds with no measurable activity are designated as “>30,000 nM” since the top concentration of compound tested in the assay is 30 μM.

Chain of rat mGlu2 (P31421 19-872): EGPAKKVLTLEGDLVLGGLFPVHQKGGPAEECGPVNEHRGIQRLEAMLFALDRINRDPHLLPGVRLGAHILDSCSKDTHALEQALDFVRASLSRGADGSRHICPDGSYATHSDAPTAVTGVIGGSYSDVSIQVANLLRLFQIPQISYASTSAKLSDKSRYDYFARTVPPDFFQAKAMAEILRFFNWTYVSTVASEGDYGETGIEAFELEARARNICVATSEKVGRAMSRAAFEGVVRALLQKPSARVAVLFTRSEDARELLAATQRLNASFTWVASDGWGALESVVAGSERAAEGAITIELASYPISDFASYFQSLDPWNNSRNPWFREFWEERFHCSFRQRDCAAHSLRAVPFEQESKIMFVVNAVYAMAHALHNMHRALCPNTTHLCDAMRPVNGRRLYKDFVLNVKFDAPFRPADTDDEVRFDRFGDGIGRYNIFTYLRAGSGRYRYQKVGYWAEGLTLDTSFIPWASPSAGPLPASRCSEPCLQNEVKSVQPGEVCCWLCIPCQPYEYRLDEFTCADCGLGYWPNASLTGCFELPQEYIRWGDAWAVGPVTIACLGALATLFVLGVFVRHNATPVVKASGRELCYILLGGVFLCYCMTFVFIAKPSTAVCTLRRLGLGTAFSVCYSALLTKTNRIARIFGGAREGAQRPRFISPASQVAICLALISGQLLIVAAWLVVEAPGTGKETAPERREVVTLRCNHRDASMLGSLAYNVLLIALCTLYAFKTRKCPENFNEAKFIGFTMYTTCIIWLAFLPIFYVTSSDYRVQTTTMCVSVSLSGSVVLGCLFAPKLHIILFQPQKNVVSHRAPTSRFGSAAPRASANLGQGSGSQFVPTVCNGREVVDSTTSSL

As to `N#Cc1cc(-c2ccc(F)cc2)c(NCC2CCOCC2)cn1` [Compound 1, 4-(4-fluorophenyl)-5-(((tetrahydro-2H-pyran-4-yl)methyl)amino)picolinonitrile], the half-inhibitory concentration (IC50) came out at 6.85 µM and the remaining activity at 30 µM amounted to 5.12%. For `N#Cc1cc(-c2ccc(F)cc2)c(NCCN2CCOCC2)cn1` [Compound 2, 4-(4-fluorophenyl)-5-((2-morpholinoethyl)amino)picolinonitrile] the same measures were above 10 µM and 47.5%.

On to `CN(CCN1CCOCC1)c1cnc(C#N)cc1-c1ccc(F)cc1` [Compound 3, 4-(4-fluorophenyl)-5-(methyl(2-morpholinoethyl)amino)picolinonitrile], for which the 50% inhibitory concentration (IC50) is above 10 µM and the remaining activity at 30 µM came to 52.4%. For `CC(CN1CCOCC1)Nc1cnc(C#N)cc1-c1ccc(F)cc1` (stereo not shown) [Compound 4, 4-(4-fluorophenyl)-5-((1-morpholinopropan-2-yl)amino)picolinonitrile] the same measures were above 10 µM and 46.6%. `CC(CNc1cnc(C#N)cc1-c1ccc(F)cc1)N1CCOCC1` (stereo not shown) [Compound 5, 4-(4-fluorophenyl)-5-((2-morpholinopropyl)amino)picolinonitrile]: the 50% inhibitory concentration (IC50) was above 10 µM and the remaining activity at 30 µM came out at 36.2%.

Regarding `N#Cc1cc(-c2ccc(F)cc2)c(NCCCN2CCOCC2)cn1` [Compound 6, 4-(4-fluorophenyl)-5-((3-morpholinopropyl)amino)picolinonitrile], the half-inhibitory concentration (IC50) was above 10 µM and the remaining activity at 30 µM turned out to be 49.2%. `N#Cc1cc(-c2ccc(F)cc2)c(OCc2ccc(Cl)nc2)cn1` [Compound 7, 5-((6-Chloropyridin-3-yl)methoxy)-4-(4-fluorophenyl)picolinonitrile] displayed a 50% inhibitory concentration (IC50) above 30 µM. Consider `NC(=O)c1cc(-c2ccc(F)cc2)c(OCc2ccc(Cl)nc2)cn1` [Compound 8, 5-((6-chloropyridin-3-yl)methoxy)-4-(4-fluorophenyl)picolinamide], for which inhibition was half-maximal at 0.429 µM (IC50) and the remaining activity at 30 µM came to 2%.

The compound `N#Cc1cc(-c2ccc(F)cc2)c(OCC2CCOCC2)cn1` [Compound 9, 4-(4-fluorophenyl)-5-((tetrahydro-2H-pyran-4-yl)methoxy)picolinonitrile] displayed an IC50 above 30 µM. As to `N#Cc1cc(-c2ccc(F)cc2)c(OCc2cccnc2)cn1` [Compound 10, 4-(4-fluorophenyl)-5-(pyridin-3-ylmethoxy)picolinonitrile], the half-maximal inhibitory concentration (IC50) was above 10 µM and the remaining activity at 30 µM was determined as 37%. As to `N#Cc1cccc(COc2cnc(C#N)cc2-c2ccc(F)cc2)c1` [Compound 11, 5-((3-cyanobenzyl)oxy)-4-(4-fluorophenyl)picolinonitrile], half-maximal inhibition (IC50) was put at 7.11 µM and the remaining activity at 30 µM was 29.9%. `N#Cc1cc(-c2ccc(F)cc2)c(OCc2cc(F)cc(F)c2)cn1` [Compound 12, 5-((3,5-difluorobenzyl)oxy)-4-(4-fluorophenyl)picolinonitrile] displayed a half-maximal inhibitory concentration (IC50) above 30 µM. `N#Cc1cc(-c2ccc(F)cc2)c(OCc2cncc(Cl)c2)cn1` [Compound 13, 5-((5-chloropyridin-3-yl)methoxy)-4-(4-fluorophenyl)picolinonitrile] returned a concentration for half-maximal inhibition (IC50) above 30 µM. Turning to `Cc1ccc(COc2cnc(C#N)cc2-c2ccc(F)cc2)cn1` [Compound 14, 4-(4-fluorophenyl)-5-((6-methylpyridin-3-yl)methoxy)picolinonitrile], the IC50 is above 30 µM. `COc1ccc(COc2cnc(C#N)cc2-c2ccc(F)cc2)cn1` [Compound 15, 4-(4-fluorophenyl)-5-((6-methoxypyridin-3-yl)methoxy)picolinonitrile] had an IC50 above 30 µM. Turning to `CC(Oc1cnc(C#N)cc1-c1ccc(F)cc1)c1cccnc1` (stereo not shown) [Compound 16, 4-(4-fluorophenyl)-5-(1-(pyridin-3-yl)ethoxy)picolinonitrile], the IC50 was above 30 µM. Regarding `N#Cc1cc(-c2ccc(F)cc2)c(OCc2ccncc2)cn1` [Compound 17, 4-(4-fluorophenyl)-5-(pyridin-4-ylmethoxy)picolinonitrile], the 50% inhibitory concentration (IC50) was 1.58 µM, the remaining activity at 30 µM turned out to be 62% and the NAM designation entry is “(Partial NAM)”. As to `Cc1cc(COc2cnc(C#N)cc2-c2ccc(F)cc2)ccn1` [Compound 18, 4-(4-fluorophenyl)-5-((2-methylpyridin-4-yl)methoxy)picolinonitrile], the concentration for half-maximal inhibition (IC50) is 2.69 µM, the remaining activity at 30 µM came out at 47.5% and the NAM designation result is listed as “(Partial NAM)”. For the compound `CC(Oc1cnc(C#N)cc1-c1ccc(F)cc1)c1ccncc1` (stereo not shown) [Compound 19, 4-(4-fluorophenyl)-5-(1-(pyridin-4-yl)ethoxy)picolinonitrile], the IC50 is above 10 µM and the remaining activity at 30 µM came out at 27.1%.

On to `N#Cc1cc(-c2ccc(F)cc2)c(OCc2ccnc(C(F)(F)F)c2)cn1` [Compound 20, 4-(4-fluorophenyl)-5-((2-(trifluoromethyl)pyridin-4-yl)methoxy)picolinonitrile], for which the IC50 is above 10 µM and the remaining activity at 30 µM is 37.9%. Take `N#Cc1cc(-c2ccc(F)cc2)c(OCc2ccc3nccn3c2)cn1` [Compound 21, 4-(4-fluorophenyl)-5-(imidazo[1,2-a]pyridin-6-ylmethoxy)picolinonitrile]: the half-inhibitory concentration (IC50) was 3.49 µM and the remaining activity at 30 µM was 16.1%. On to `Cn1ccc(COc2cnc(C#N)cc2-c2ccc(F)cc2)n1` [Compound 22, 4-(4-fluorophenyl)-5-((1-methyl-1H-pyrazol-3-yl)methoxy)picolinonitrile], for which the half-maximal inhibitory concentration (IC50) was above 10 µM and the remaining activity at 30 µM came to 11.1%. The compound `N#Cc1cc(-c2ccc(F)cc2)c(OCCc2cccnc2)cn1` [Compound 23, 4-(4-fluorophenyl)-5-(2-(pyridin-3-yl)ethoxy)picolinonitrile] came in with an IC50 above 30 µM. Compound `N#Cc1cc(-c2ccc(F)cc2)c(OCCN2CCOCC2)cn1` [Compound 24, 4-(4-fluorophenyl)-5-(2-morpholinoethoxy)picolinonitrile] yielded an IC50 above 30 µM. Consider `N#Cc1cc(-c2ccc(F)cc2)c(OCCOc2cccnc2)cn1` [Compound 25, 4-(4-fluorophenyl)-5-(2-(pyridin-3-yloxy)ethoxy)picolinonitrile], for which the IC50 is above 10 µM and the remaining activity at 30 µM stood at 39%. As to `N#Cc1cc(-c2ccc(F)cc2)c(OC2CCN(c3ccnc(C(F)(F)F)c3)CC2)cn1` [Compound 26, 4-(4-fluorophenyl)-5-((1-(2-(trifluoromethyl)pyridin-4-yl)piperidin-4-yl)oxy)picolinonitrile], the IC50 was above 30 µM. Same read-out and setting: as for `N#Cc1cc(-c2ccc(F)cc2)c(OC2CCN(c3ccnc(C(F)(F)F)c3)C2)cn1` (stereo not shown) [Compound 27, 4-(4-fluorophenyl)-5-((1-(2-(trifluoromethyl)pyridin-4-yl)pyrrolidin-3-yl)oxy)picolinonitrile], the figure is above 30 µM; as for `N#Cc1cc(-c2ccc(F)cc2)c(OC2CN(c3ccnc(C(F)(F)F)c3)C2)cn1` [Compound 28, 4-(4-fluorophenyl)-5-((1-(2-(trifluoromethyl)pyridin-4-yl)azetidin-3-yl)oxy)picolinonitrile], above 30 µM. With `N#Cc1cc(-c2ccc(F)cc2)c(OCCOCc2ccccc2)cn1` [Compound 29, 5-(2-(benzyloxy)ethoxy)-4-(4-fluorophenyl)picolinonitrile], half-maximal inhibition (IC50) was put at 4.25 µM, the remaining activity at 30 µM stood at 65.2% and the NAM designation result is on record as “(Partial NAM)”. For `NC(=O)c1cc(-c2ccc(F)cc2)c(OCc2cc(F)cc(F)c2)cn1` [Compound 30, 5-((3,5-difluorobenzyl)oxy)-4-(4-fluorophenyl)picolinamide], in that order: 0.401 µM, 18.7% and “(Partial NAM)”.
